Assay results taken from paper PMC10333884, “Large‐scale phosphomimetic screening identifies phospho‐modulated motif‐based protein interactions” (Molecular Systems Biology, 2023).
Residues, ends and D or L forms follow the SMILES beside them.

Tests used:
[1] = target: T1, KPNA4 ARM Major (Homo sapiens, UniProt O00629); experiment: FP displacement assay, KPNA4 ARM major pocket; type: binding; details: for Kd: major pocket probe FITC-MYC 5 nM, 50 mM sodium phosphate pH 7.4, room temperature, at least three technical replicates, read-out: KD values ± SEM
T1 construct: 60-487; GST (cleaved yes); made in house; host or cells: Escherichia coli BL21-Gold(DE3)
Description: (§1) FP experiments were performed as described previously (Kliche et al, [2021]). Shortly, in order to monitor the binding event, FITC‐labelled peptides were used (excitation 495 nm, emission: 535 nm) and the FP signal was recorded in mP on a SpectraMax iD5 Multi‐Mode Microplate Reader (Molecular Devices) by measuring the emitted light in two angels. The measurements were performed at room temperature and prepared in nonbinding black half area 96‐well microplates (Corning®; 50 μl/well). For measuring direct binding, that is saturation curves, a 1:1 dilution series of protein domain (25 μl/well) was generated in 50 mM sodium phosphate buffer pH 7.4 and the measurement performed with 5 nM FITC‐labelled peptide (25 μl/well). The buffer‐corrected values were subsequently plotted with PRISM and fitted to the quadratic equation (Gianni et al, [2005]).
(§2) The 1:1 dilution series in this experiment was performed with the unlabelled peptide in 50 mM sodium phosphate buffer pH 7.4, so that each well‐contained unlabelled peptide (25 μl) at a certain concentration and pre‐formed complex (25 μl). The KD values of this indirectly monitored binding event were calculated as described previously (Nikolovska‐Coleska et al, [2004]). All measurements were at least in technical triplicates as well as biological duplicates when indicated. An amplitude shift between repeat measurements in the displacement experiments was occasionally observed due to variations in the protein preparations. If that was the case, the “active” protein concentration was back‐calculated according to the quadratic equation from the saturation curves performed in parallel. By comparing the active protein concentrations in the complex between different protein preparations, the amplitude was normalised.

[2] = target: T2, KPNA4 ARM minor (Homo sapiens, UniProt O00629); experiment: FP displacement assay, KPNA4 ARM minor pocket; type: binding; details: for Kd: minor pocket probe FITC-NCOR2 5 nM, 50 mM sodium phosphate pH 7.4, room temperature, at least three technical replicates, read-out: KD values ± SEM
T2 construct: 60-487; GST (cleaved yes); made in house; host or cells: Escherichia coli BL21-Gold(DE3)
Description: as §1, §2

[3] = test system: KPNA4 ARM; experiment: Phosphomimetic ProP-PD selection, KPNA4 ARM; type: binding, human; details: phosphomimetic enrichment score of the wild-type/phosphomimetic (E) pair at the phosphosite, PM_HD2 phage selection; same score in the major and minor pocket; P-value in brackets not taken
[4] = target: T3, GGA1 VHS (Homo sapiens, UniProt Q9UJY5); experiment: FP displacement assay, GGA1 VHS; type: binding; details: FP displacement, probe FITC-IGF2R 5 nM, 50 mM sodium phosphate pH 7.4, room temperature; at least three technical replicates; read-out: KD values ± SEM
T3 construct: GGA1_VHS__Q9UJY5_1_157; GST (cleaved yes); made in house; host or cells: Escherichia coli BL21-Gold(DE3)
T3 sequence (Q9UJY5 1-157): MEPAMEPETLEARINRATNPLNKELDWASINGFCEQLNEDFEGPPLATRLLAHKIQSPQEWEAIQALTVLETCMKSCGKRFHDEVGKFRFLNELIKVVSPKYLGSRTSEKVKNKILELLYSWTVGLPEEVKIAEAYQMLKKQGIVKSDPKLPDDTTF
Description: as §1, §2

[5] = target: T3, GGA1 VHS; experiment: ITC, GGA1 VHS; type: binding; parameters: Ka: unit not given beside the values
[6] = target: T3, GGA1 VHS; experiment: Phosphomimetic ProP-PD selection, GGA1 VHS; details: phosphomimetic enrichment score of the wild-type/phosphomimetic (E) pair at the phosphosite, PM_HD2 phage selection; positive = phosphomimetic enhances binding; P-value in brackets not taken
Description: Selections using the PM_HD2 phage library were performed as described previously with minor modification to the original protocol. The corresponding tag protein (either GST or MBP) was first used during negative selections. Selections were run for 4 days. • Bait and tag proteins (10–15 μg in 100 μl PBS) were immobilised in 96‐well MaxiSorb plate (NUNC) o.n. at 4°C. • Escherichia coli OmniMax bacteria were grown in 2YT medium supplemented with tetracycline (100 μg/ml) at 37°C and 200 rpm. • Plates with immobilised bait/tag proteins were blocked with 0.5% BSA in PBS for 1 h at 4°C. • Phage library (10 μl/well) was prepared by diluting 10× with PBS and adding one‐fourth of the volume of PEG/NaCl. For phage precipitation, prepared library was incubated for 10 min on ice followed by centrifugation for 10 min at 10,000 × g at 4°C. […]
Based on the results from phage pool ELISAs, samples from selection Day 3 and 4 were selected for NGS, as described previously (Benz et al, [2022]). • Peptide coding regions were amplified and dual‐barcoded by PCR. […] From the columns, samples were eluted with 30 μl TE (10 mM Tris–HCl, 1 mM EDTA. pH 7.5) buffer and quantified with Quant‐iT PicoGreen dsDNA Assay Kit. • Samples were sequenced on MiSeq (MSC 2.5.0.5/RTA 1.18.54) with a 151 nt (Read1) setup using “Version3” chemistry. […]

T2 sequence (O00629 60-487): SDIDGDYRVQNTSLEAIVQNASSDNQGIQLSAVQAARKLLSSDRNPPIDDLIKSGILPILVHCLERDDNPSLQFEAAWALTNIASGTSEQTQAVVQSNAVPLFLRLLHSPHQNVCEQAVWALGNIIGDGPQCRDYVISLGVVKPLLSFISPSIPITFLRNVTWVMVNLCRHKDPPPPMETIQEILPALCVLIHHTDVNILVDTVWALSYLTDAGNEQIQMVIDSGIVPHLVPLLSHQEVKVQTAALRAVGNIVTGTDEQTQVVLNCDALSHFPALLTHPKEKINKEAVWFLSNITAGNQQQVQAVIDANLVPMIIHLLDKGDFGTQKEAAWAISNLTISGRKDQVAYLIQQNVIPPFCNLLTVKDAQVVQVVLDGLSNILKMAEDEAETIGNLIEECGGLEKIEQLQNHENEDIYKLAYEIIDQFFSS
T1 sequence (O00629 60-487): as above

| Compound | Kd [1] | Kd [2] | PES [3] | Kd [4] | PES [6] | further results |
| --- | --- | --- | --- | --- | --- | --- |
| CC(=O)NCC(=O)N[C@@H](C)C(=O)N[C@@H](CCC(=O)O)C(=O)N1CCC[C@H]1C(=O)N[C@@H](C)C(=O)N[C@@H](CC(C)C)C(=O)N[C@@H](CCCCN)C(=O)N[C@@H](CCCNC(=N)N)C(=O)N[C@@H](CO)C(=O)N[C@@H](Cc1c[nH]cn1)C(=O)N[C@@H](CO)C(=O)N[C@@H](CC(=O)O)C(=O)N[C@@H](CO)C(=O)N[C@@H](Cc1ccc(O)cc1)C(N)=O [CDC25A114–125 E] (Ac-GAEPALKRSHSDSY-NH2) | 0.75 ± 0.03 µM | 2.3 ± 0.3 µM | 10 (0.000006) |  |  |  |
| CC(=O)N[C@@H](CC(=O)O)C(=O)N[C@H](C(=O)N[C@@H](CCC(=O)O)C(=O)N[C@@H](Cc1c[nH]cn1)C(=O)NCC(=O)NCC(=O)N[C@@H](CCCCN)C(=O)N[C@@H](CCCNC(=N)N)C(=O)N[C@@H](CCC(=O)O)C(=O)N[C@@H](CCCNC(=N)N)C(=O)N[C@@H](CC(C)C)C(=O)N[C@H](C(=O)N1CCC[C@H]1C(=O)N[C@H](C(=O)N[C@@H](CO)C(=O)N[C@@H](Cc1ccc(O)cc1)C(N)=O)C(C)C)[C@@H](C)O)C(C)C [SQSTM1_258–272 E] (Ac-DVEHGGKRERLTPVSY-NH2) | 5.3 ± 0.4 µM | 41 ± 2 µM | −3 (0.0096) |  |  |  |
| CC[C@H](C)[C@H](NC(=O)[C@H](CC(=O)O)NC(=O)[C@H](CC(=O)O)NC(=O)[C@H](CO)NC(=O)[C@@H](NC(=O)[C@@H]1CCCN1C(=O)[C@H](CO)NC(=O)[C@H](CCCCN)NC(=O)[C@H](Cc1ccc(O)cc1)NC(C)=O)[C@@H](C)O)C(=O)N[C@@H](CCC(=O)O)C(=O)N[C@@H](CC(C)C)C(=O)N[C@@H](CC(C)C)C(=O)N[C@@H](Cc1c[nH]cn1)C(=O)N[C@@H](CCC(=O)O)C(=O)N[C@@H](CO)C(=O)N[C@@H](CCC(N)=O)C(=O)N[C@@H](CO)C(N)=O [RNF11_6–21 E] (Ac-YKSPTSDDIELLHESQS-NH2) |  |  |  | 1000 µM | 4.9 (0.009) | Kd ([5]; ITC (iTC200), 50 mM sodium phosphate pH 7.4, 1 mM DTT, average of the runs, technical duplicates): 101 µM; Ka ([5]; ITC single run: date 200220, injection 1): 10600; Ka ([5]; ITC single run: date 200220, injection 2): 9350 |
| CC(=O)N[C@@H](CC(N)=O)C(=O)N[C@@H](Cc1ccc(O)cc1)C(=O)N[C@@H](C)C(=O)N1CCC[C@H]1C(=O)N1CCC[C@H]1C(=O)N[C@H](C(=O)N[C@@H](CCCCN)C(=O)N[C@@H](CCCNC(=N)N)C(=O)N[C@@H](CCC(=O)O)C(=O)N[C@@H](CCCNC(=N)N)C(=O)N[C@@H](CCC(=O)O)C(=O)N[C@@H](CO)C(=O)N[C@@H](CO)C(=O)N[C@@H](CC(C)C)C(=O)N[C@H](C(=O)N[C@@H](CCC(N)=O)C(N)=O)[C@@H](C)O)C(C)C [RANBP3_114–129 E (p + 5)] (Ac-NYAPPVKRERESSLTQ-NH2) | 0.8 ± 0.03 µM | 61 ± 2 µM | −7 (0.00012) |  |  | IC50 ([1]; Fig 3E, KPNA4 ARM major, technical triplicates, read-out: IC50 values of displacement curves, with SEM): 7.1 ± 0.5 µM; IC50 ([2]; Fig 3E, KPNA4 ARM minor, technical triplicates, read-out: IC50 values of displacement curves, with SEM): 290 ± 16 µM |
| CC(=O)N[C@@H](CCC(=O)O)C(=O)N[C@H](C(=O)N[C@@H](Cc1ccc(O)cc1)C(=O)N[C@@H](Cc1ccc(O)cc1)C(=O)N[C@@H](CC(C)C)C(=O)N[C@@H](CO)C(=O)N[C@@H](CC(=O)O)C(=O)N[C@@H](CCC(=O)O)C(=O)N1CCC[C@H]1C(=O)N[C@@H](CC(C)C)C(=O)N[C@@H](CC(C)C)C(=O)NCC(=O)N1CCC[C@H]1C(=O)N1CCC[C@H]1C(=O)N[C@H](C(=O)NCC(N)=O)C(C)C)[C@@H](C)O [GTSE1_145–160 E] (Ac-ETYYLSDEPLLGPPVG-NH2) |  |  |  | 199 ± 4 µM | 9 (0.00012) |  |
| CC(=O)N[C@@H](CC(=O)O)C(=O)N[C@@H](CC(C)C)C(=O)N[C@@H](CC(C)C)C(=O)N[C@@H](CCC(=O)O)C(=O)N[C@@H](CO)C(=O)N1CCC[C@H]1C(=O)N[C@@H](CC(=O)O)C(=O)N[C@H](C(=O)NCC(=O)N[C@@H](CC(C)C)C(=O)N[C@@H](CC(C)C)C(=O)N[C@@H](CCCCN)C(=O)N[C@@H](CC(C)C)C(=O)N[C@@H](C)C(=O)N[C@@H](CO)C(=O)N[C@@H](Cc1ccc(O)cc1)C(N)=O)C(C)C [JUN59–73 E] (Ac-DLLESPDVGLLKLASY-NH2) |  |  |  | 450 ± 50 µM | 3.6 (0.023) |  |
